Results as given in US20180370927A1, “MICROBIOCIDAL OXADIAZOLE DERIVATIVES” (SYNGENTA PARTICIPATIONS AG, priority 2015, published 2018).

Columns and labels:
[1] = tested on: Uromyces viciae-Fabae; test: Uromyces viciae-fabae / field bean / leaf disc preventative (faba-bean rust); format: in vivo; conditions: foliar, 288 h, 100 ppm in the applied formulation, field bean leaf discs, assessed 12 days after application, read-out: disease control compared to untreated control leaf discs
Description: Leaf disks or leaf segments of various plant species are cut from plants grown in a greenhouse. The cut leaf disks or segments are placed in multiwell plates (24-well format) onto water agar. The leaf disks are sprayed with a test solution before (preventative) or after (curative) inoculation. Compounds to be tested are prepared as DMSO solutions (max. 10 mg/mL) which are diluted to the appropriate concentration with 0.025% Tween20 just before spraying. The inoculated leaf disks or segments are incubated under defined conditions (temperature, relative humidity, light, etc.) according to the respective test system. A single evaluation of disease level is carried out 3 to 14 days after inoculation, depending on the pathosystem. Percent disease control relative to the untreated check leaf disks or segments is then calculated.
Example 5: Fungicidal Activity Against Uromyces viciae-Fabael Field Bean/Leaf Disc Preventative (Faba-Bean Rust)
Field bean leaf discs are placed on water agar in multiwell plates (96-well format) and 10 μL of the formulated test compound diluted in acetone and a spreader pipetted onto the leaf disc. Two hours after application leaf discs are inoculated by spraying a spore suspension on the lower leaf surface. The leaf discs are incubated in a climate cabinet at 22° C. with 18 hour days and 70% relative humidity. The activity of a compound is assessed as percent disease control compared to untreated when an appropriate level of disease damage appears in untreated check leaf disks (12 days after application).
The following compounds at 100 ppm in the applied formulation give at least 80% disease control in this test when compared to untreated control leaf discs under the same conditions, which show extensive disease development.

[2] = tested on: Glomerella lacenarium (Colletotrichum lacenarium); test: Glomerella lacenarium (Colletotrichum lacenarium) liquid culture / cucumber / preventative (anthracnose); format: cell-based; conditions: 20 ppm in the applied formulation, liquid culture in PDB, 24° C., 3 to 4 days after application, read-out: disease control (inhibition of growth, photometric) compared to untreated control
Outline: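 Cryostored conidia in potato dextrose broth added to DMSO compound solution in microtiter plates, incubated at 24° C. Growth inhibition read photometrically 3 to 4 days after application, as percent control versus untreated check; compounds tested at 20 ppm.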

[3] = tested on: Puccinia recondita f. Sp. Tritici; test: Puccinia recondita f. sp. tritici / wheat / leaf disc preventative (brown rust); format: in vivo; conditions: foliar, 200 ppm in the applied formulation, wheat leaf segments, preventative, assessed 7 to 9 days after application, read-out: disease control compared to untreated control leaf disks
Outline: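 Wheat cv. Kanzler leaf segments on agar sprayed with formulated compound in water, inoculated with rust spores 1 day later. Incubated at 19° C, 75% rh, 12 h light/12 h dark; percent disease control versus untreated scored 7 to 9 days after application; tested at 200 ppm.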

[4] = tested on: Phakopsora pachyrhizi; test: Phakopsora pachyrhizi / soybean / leaf disc preventative (Asian soybean rust); format: in vivo; conditions: foliar, 200 ppm in the applied formulation, soybean leaf disks, assessed 12 to 14 days after application, read-out: disease control compared to untreated control leaf disks
Outline: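 Soybean leaf discs on water agar were sprayed with formulated compound diluted in water, then inoculated one day later with spore suspension on the lower leaf surface. Held 24-36 h dark at 20° C., 75% RH, then 12 h light/day; percent disease control versus untreated scored 12 to 14 days after application.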

[5] = tested on: Puccinia recondita f. Sp. Tritici; test: Puccinia recondita f. sp. tritici / wheat / leaf disc curative (brown rust); format: in vivo; conditions: foliar, 200 ppm in the applied formulation, wheat leaf segments, curative (applied 1 day after inoculation), assessed 6 to 8 days after application, read-out: disease control compared to untreated control leaf disks
Outline: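 Wheat cv. Kanzler leaf segments on agar were inoculated with spores, kept dark at 19° C, 75% RH, then sprayed with diluted formulated compound 1 day after inoculation (curative). Incubation continued at 19° C, 75% RH, 12 h light/12 h dark, with percent disease control versus untreated scored 6 to 8 days after application.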

With `O=C(Nc1ccc(-c2noc(C(F)(F)F)n2)cc1)C(=O)c1ccccc1` [Compound 1.1, 2-oxo-2-phenyl-N-[4-[5-(trifluoromethyl)-1,2,4-oxadiazol-3-yl]phenyl]acetamide] the pest or weed control at 100 ppm [1] was at least 80%.

Work on `O=C(Nc1ccc(-c2noc(C(F)(F)F)n2)cc1)C(=O)c1cccc(F)c1` [Compound 1.2, 2-(3-fluorophenyl)-2-oxo-N-[4-[5-(trifluoromethyl)-1,2,4-oxadiazol-3-yl]phenyl]acetamide] yielded an inhibition at 20 ppm [2] of at least 80% and a pest or weed control at 100 ppm [1] of at least 80%.

With `CO/N=C(/C(=O)Nc1ccc(-c2noc(C(F)(F)F)n2)cc1)c1ccccc1` [Compound 2.1, (2E)-2-methoxyimino-2-phenyl-N-[4-[5-(trifluoromethyl)-1,2,4-oxadiazol-3-yl]phenyl]acetamide] the pest or weed control at 100 ppm [1] was at least 80%.

With `CON=C(C(=O)NCc1ccc(-c2noc(C(F)(F)F)n2)cc1)c1ccccc1` [Compound 2.2, 2-methoxyimino-2-phenyl-N-[[4-[5-(trifluoromethyl)-1,2,4-oxadiazol-3-yl]phenyl]methyl]acetamide] the inhibition at 20 ppm [2] was at least 80%, the pest or weed control at 100 ppm [1] was at least 80% and the pest or weed control at 200 ppm [3] was at least 80%.

Compound `CCOC(=O)C(=O)Nc1ccc(-c2noc(C(F)(F)F)n2)cc1` [Compound 2.3, ethyl 2-oxo-2-[4-[5-(trifluoromethyl)-1,2,4-oxadiazol-3-yl]anilino]acetate] has a pest or weed control at 100 ppm [1] of at least 80%, a melting point of 164 to 166 °C and a pest or weed control at 200 ppm [3] of at least 80%.

`O=C(O)C(=O)Nc1ccc(-c2noc(C(F)(F)F)n2)cc1` [Compound 3.1, 2-oxo-2-[4-[5-(trifluoromethyl)-1,2,4-oxadiazol-3-yl]anilino]acetic acid] showed a pest or weed control at 100 ppm [1] of at least 80% and a melting point of 184 to 186 °C.

In the case of `CN(C)C(=O)C(=O)Nc1ccc(-c2noc(C(F)(F)F)n2)cc1` [Compound 4.1, N′,N′-dimethyl-N-[4-[5-(trifluoromethyl)-1,2,4-oxadiazol-3-yl]phenyl]oxamide], the inhibition at 20 ppm [2] is reported as at least 80%, the pest or weed control at 100 ppm [1] is reported as at least 80% and the pest or weed control at 200 ppm [4] is reported as at least 80%. The pest or weed control at 200 ppm [5] was at least 80%, the melting point was 127 to 130 °C and the pest or weed control at 200 ppm [3] was at least 80%.

In the case of `CN(C)C(=O)C(=O)NCc1ccc(-c2noc(C(F)(F)F)n2)cc1` [Compound 4.2], the inhibition at 20 ppm [2] is reported as at least 80%, the pest or weed control at 100 ppm [1] is reported as at least 80% and the pest or weed control at 200 ppm [4] is reported as at least 80%. It also gave a pest or weed control at 200 ppm [5] of at least 80%, a melting point of 107 to 112 °C and a pest or weed control at 200 ppm [3] of at least 80%.

Work on `O=C(NCC1CC1)C(=O)Nc1ccc(-c2noc(C(F)(F)F)n2)cc1` [Compound 4.3, N-(cyclopropylmethyl)-N′-[4-[5-(trifluoromethyl)-1,2,4-oxadiazol-3-yl]phenyl]oxamide] yielded a pest or weed control at 100 ppm [1] of at least 80%, a pest or weed control at 200 ppm [4] of at least 80% and a melting point of 209 to 212 °C.

Compound `COCCNC(=O)C(=O)Nc1ccc(-c2noc(C(F)(F)F)n2)cc1` [Compound 4.4, N-(2-methoxyethyl)-N′-[4-[5-(trifluoromethyl)-1,2,4-oxadiazol-3-yl]phenyl]oxamide] has a pest or weed control at 100 ppm [1] of at least 80%, a pest or weed control at 200 ppm [4] of at least 80% and a pest or weed control at 200 ppm [5] of at least 80%. The melting point was 204 to 205 °C and the pest or weed control at 200 ppm [3] was at least 80%.

With `C#CCNC(=O)C(=O)Nc1ccc(-c2noc(C(F)(F)F)n2)cc1` [Compound 4.5, N-prop-2-ynyl-N′-[4-[5-(trifluoromethyl)-1,2,4-oxadiazol-3-yl]phenyl]oxamide] the pest or weed control at 100 ppm [1] was at least 80%, the pest or weed control at 200 ppm [4] was at least 80% and the melting point was 212 to 214 °C.

`O=C(Nc1ccc(-c2noc(C(F)(F)F)n2)cc1)C(=O)NC1CC1` [Compound 4.6, N′-cyclopropyl-N-[4-[5-(trifluoromethyl)-1,2,4-oxadiazol-3-yl]phenyl]oxamide] showed a pest or weed control at 100 ppm [1] of at least 80%, a pest or weed control at 200 ppm [4] of at least 80% and a melting point of 238 to 241 °C.

`CNC(=O)C(=O)Nc1ccc(-c2noc(C(F)(F)F)n2)cc1` [Compound 4.7, N-methyl-N′-[4-[5-(trifluoromethyl)-1,2,4-oxadiazol-3-yl]phenyl]oxamide] showed a pest or weed control at 100 ppm [1] of at least 80%, a pest or weed control at 200 ppm [4] of at least 80% and a pest or weed control at 200 ppm [5] of at least 80%. It also gave a melting point of 231 to 234 °C and a pest or weed control at 200 ppm [3] of at least 80%.

`CN(C)NC(=O)C(=O)Nc1ccc(-c2noc(C(F)(F)F)n2)cc1` [Compound 4.8, 2-(2,2-dimethylhydrazino)-2-oxo-N-[4-[5-(trifluoromethyl)-1,2,4-oxadiazol-3-yl]phenyl]acetamide] gave a pest or weed control at 100 ppm [1] of at least 80%, a pest or weed control at 200 ppm [4] of at least 80% and a melting point of 232 to 234 °C.

With `CON(C)C(=O)C(=O)Nc1ccc(-c2noc(C(F)(F)F)n2)cc1` [Compound 4.9, N′-methoxy-N′-methyl-N-[4-[5-(trifluoromethyl)-1,2,4-oxadiazol-3-yl]phenyl]oxamide] the inhibition at 20 ppm [2] was at least 80%, the pest or weed control at 100 ppm [1] was at least 80% and the pest or weed control at 200 ppm [4] was at least 80%. It also gave a melting point of 163 to 165 °C and a pest or weed control at 200 ppm [3] of at least 80%.

In the case of `CCCON(Cc1ccc(-c2noc(C(F)(F)F)n2)cc1)C(=O)C(N)=O` [Compound 4.11, N′-propoxy-N′-[[4-[5-(trifluoromethyl)-1,2,4-oxadiazol-3-yl]phenyl]methyl] oxamide], the inhibition at 20 ppm [2] is reported as at least 80%, the pest or weed control at 100 ppm [1] is reported as at least 80% and the pest or weed control at 200 ppm [3] is reported as at least 80%.
